Assay results published in PMC5587309, “Involvement of arginine 878 together with Ca^2+ in mouse aminopeptidase A substrate specificity for N-terminal acidic amino-acid residues” (PLoS ONE, 2017).

Tests used:
wild-type mAPA = target: T1, wild-type mAPA (Mus musculus, UniProt P16406); assay: Kinetic parameters of substrate hydrolysis by wild-type His-mAPA; type: biochemical; conditions: for Km / kcat: wild type mAPA
T1 construct: made in house; host or cells: stably transfected CHO-K1 cells
T1 sequence (P16406 1-945): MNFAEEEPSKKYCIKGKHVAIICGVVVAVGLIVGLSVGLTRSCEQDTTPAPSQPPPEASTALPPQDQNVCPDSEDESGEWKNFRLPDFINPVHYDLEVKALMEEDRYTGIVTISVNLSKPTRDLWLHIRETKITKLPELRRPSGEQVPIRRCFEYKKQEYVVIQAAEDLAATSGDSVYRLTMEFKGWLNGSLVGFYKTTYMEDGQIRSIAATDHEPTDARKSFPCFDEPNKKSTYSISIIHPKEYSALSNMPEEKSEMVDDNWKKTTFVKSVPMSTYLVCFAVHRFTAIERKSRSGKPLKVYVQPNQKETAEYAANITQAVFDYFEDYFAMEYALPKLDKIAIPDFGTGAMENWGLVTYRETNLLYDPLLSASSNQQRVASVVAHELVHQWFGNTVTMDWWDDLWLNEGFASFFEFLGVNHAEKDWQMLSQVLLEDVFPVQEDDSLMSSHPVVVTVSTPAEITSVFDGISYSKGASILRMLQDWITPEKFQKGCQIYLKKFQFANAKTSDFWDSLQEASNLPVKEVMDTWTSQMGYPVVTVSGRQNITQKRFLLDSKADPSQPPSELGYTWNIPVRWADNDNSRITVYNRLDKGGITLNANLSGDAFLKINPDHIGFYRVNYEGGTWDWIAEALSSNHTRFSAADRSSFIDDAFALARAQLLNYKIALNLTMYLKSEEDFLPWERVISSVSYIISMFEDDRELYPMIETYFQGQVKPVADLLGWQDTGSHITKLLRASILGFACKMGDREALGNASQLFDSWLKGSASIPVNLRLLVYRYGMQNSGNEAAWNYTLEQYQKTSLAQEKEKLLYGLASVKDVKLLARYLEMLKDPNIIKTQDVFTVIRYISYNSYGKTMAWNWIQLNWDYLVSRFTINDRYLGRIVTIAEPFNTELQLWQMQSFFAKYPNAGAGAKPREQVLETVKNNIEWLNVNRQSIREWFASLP
Description: Enzyme assays were carried out for wild-type and mutated His-mAPAs in 50 mM Tris-HCl buffer, pH 7.4, with or without 4 mM CaCl2, by monitoring the rate of hydrolysis of GluNA, as previously described. The sensitivity to Ca^2+ of purified wild-type and mutated His-mAPA was determinated by incubating 0.5 mM GluNA with 0 to 4 mM CaCl2 in a final volume of 100 μl of 50 mM Tris-HCl buffer, pH 7.4. All the assays were performed in black 96-well plates (solid black 96-well flat-bottomed non-treated plates with no lid; Corning Costar). All of the enzymatic studies were performed such that substrate hydrolysis rates were maintained below 10% (initial rate conditions). The kinetic curves were monitored by following the increase in fluorescence at 460 nm (lex = 330 nm), induced by the release of the β-naphthylamide fluorogenic part of the substrate by APA. Fluorescence signals were monitored by counting photons with a spectrophotometer (Fusion universal microplate analyser; Packard) equipped with a temperature control device and a plate shaker. The kinetic parameters (Km and kcat) were determined from Michaelis-Menten plots, using GraphPad Prism 4 software (GraphPad) with a final concentration of substrate (GluNA) from 0.005 to 5 mM with or without 4 mM Ca^2+. For evaluation of the substrate specificity of APA with or without 4 mM Ca^2+, the rate of hydrolysis of […] additional substrates, α-L-aspartate-β-naphthylamide (AspNA), α-L-alanine-β-naphthylamide (AlaNA) and basic α-L-lysine-β-naphthylamide (LysNA), was determined under the same experimental conditions as described for GluNA. The sensitivity of wild-type and mutated His-mAPAs to inhibition by [(3S)-3-amino-4-sulfanyl-butane-1-sulfonic acid] (EC33), glutamate-thiol (GluSH), glutamate-phosphonic-acid (GluPO3H2), methionine-thiol (MetSH) and lysine-thiol (LysSH) was determined by establishing dose-dependent inhibition curves for a final GluNA concentration of 0.5 mM in the presence or absence of 4 mM CaCl2. These compounds being linear competitive inhibitors, their Ki were calculated from the formula Ki = IC50/ (1+ [GluNA]/Km).

APA = target: APA; set-up: method as in PMID 7915326; conditions: read-out: inhibitory potency on APA; cited from earlier work
APN = tested on: APN; set-up: method as in PMID 7915326; conditions: cited from earlier work

Q: Which results are given for `N[C@@H](CCC(=O)O)C(=O)Nc1ccc2ccccc2c1` [HGluβNA, α-L-glutamyl-β-naphthylamide]?
A: Km (wild-type mAPA; 4 mM Ca2+): 39.1 ± 3.9 µM; kcat (wild-type mAPA; 4 mM Ca2+): 81.7 ± 4.0 s⁻¹; Km (wild-type mAPA; no Ca2+): 165 ± 13.5 µM; kcat (wild-type mAPA; no Ca2+): 13.9 ± 0.1 s⁻¹; increase of cleavage efficiency (kcat/Km) by addition of Ca2+ (wild-type mAPA; wild-type APA, 4 mM Ca2+ vs no Ca2+): 25 fold

Q: With `N[C@@H](CC(=O)O)C(=O)Nc1ccc2ccccc2c1` [HAspβNA, α-L-aspartate-β-naphthylamide] as the molecule, how does the Km (wild-type mAPA; 4 mM Ca2+) read?
A: 54 ± 1.4 µM

Q: And the kcat (wild-type mAPA; 4 mM Ca2+)?
A: 68.1 ± 1.3 s⁻¹

Q: And the Km (wild-type mAPA; no Ca2+)?
A: 149 ± 15.6 µM

Q: What about the kcat (wild-type mAPA; no Ca2+) of the same molecule?
A: 10.4 ± 0.6 s⁻¹

Q: With `N[C@H](CS)CCS(=O)(=O)O` [EC33, (3S)‐3‐amino‐4‐sulfanylbutane‐1‐sulfonic acid] as the molecule, how does the Ki (APA) read?
A: 100 nM

Q: And the “fold less active on APN than on APA” value (APN)?
A: 100 fold

Q: Which results are given for `NCCCC[C@H](N)C(=O)Nc1ccc2ccccc2c1` [HLysβNA, α-L-lysine-β-naphthylamide]?
A: Km (wild-type mAPA; 4 mM Ca2+): 244 ± 29.5 µM; kcat (wild-type mAPA; 4 mM Ca2+): 25.8 ± 0.2 s⁻¹; Km (wild-type mAPA; no Ca2+): 304 ± 49.7 µM; kcat (wild-type mAPA; no Ca2+): 16.4 ± 0.7 s⁻¹

Q: Which results are given for `C[C@H](N)C(=O)Nc1ccc2ccccc2c1` [HAlaβNA, α-L-alanine-β-naphthylamide]?
A: Km (wild-type mAPA; 4 mM Ca2+): 321 ± 41 µM; kcat (wild-type mAPA; 4 mM Ca2+): 17.4 ± 0.6 s⁻¹; Km (wild-type mAPA; no Ca2+): 394 ± 20 µM; kcat (wild-type mAPA; no Ca2+): 21.6 ± 0.5 s⁻¹
